Source: ChEMBL document CHEMBL3885881, “DrugMatrix”

Organism: Rattus norvegicus
Assay: DrugMatrix - Regimen: Daily Repeat
Format: toxicity, organism-based, Sprague-Dawley
Set-up: regimen Daily Repeat, gender Male, age 6-8 weeks
Details: in vivo, sc, 54 mg/kg, route subcutaneous, dose level Low, […]
[1] = 72 h, tissue Plasma, time 3 day
[2] = 120 h, tissue Blood, time 5 day
[3] = 120 h, tissue Plasma, time 5 day

In the case of NYSTATIN, the “ABSOLUTE BASOPHIL” value (72 h, tissue Blood, time 3 day) is reported as 0 CELLS/uL, the “ABSOLUTE EOSINOPHIL” value (72 h, tissue Blood, time 3 day) is reported as 50 CELLS/uL and the “ABSOLUTE LYMPHOCYTE” value (72 h, tissue Blood, time 3 day) is reported as 13843 CELLS/uL. The “ABSOLUTE MONOCYTE” value (72 h, tissue Blood, time 3 day) was 920.67 CELLS/uL, the “ABSOLUTE SEGMENTED NEUTROPHIL” value (72 h, tissue Blood, time 3 day) was 2486.33 CELLS/uL and the BASOPHIL (72 h, tissue Blood, time 3 day) was 0%. For the same sequence, the EOSINOPHIL (72 h, tissue Blood, time 3 day) was 0.33%, the “ERYTHROCYTE COUNT” value (72 h, tissue Blood, time 3 day) was 5.95 x10E6/uL and the HEMATOCRIT (72 h, tissue Blood, time 3 day) was 34.97%. For the same sequence, the HEMOGLOBIN (72 h, tissue Blood, time 3 day) was 13.07 G/DL, the “LEUKOCYTE COUNT” value (72 h, tissue Blood, time 3 day) was 17.3 x10E3/uL and the LYMPHOCYTE (72 h, tissue Blood, time 3 day) was 80.33%. For the same sequence, the “MEAN CORPUSCULAR HEMOGLOBIN” value (72 h, tissue Blood, time 3 day) was 21.93 pg, the “MEAN CORPUSCULAR HEMOGLOBIN CONCENTRATION” value (72 h, tissue Blood, time 3 day) was 37.37 G/DL and the “MEAN CORPUSCULAR VOLUME” value (72 h, tissue Blood, time 3 day) was 58.73 fL. The MONOCYTE (72 h, tissue Blood, time 3 day) was 5.33%, the NEUTROPHIL (72 h, tissue Blood, time 3 day) was 14% and the “NUCLEATED RED BLOOD CELLS” value (72 h, tissue Blood, time 3 day) was 0 /100WBC. The “PLATELET COUNT” value (72 h, tissue Blood, time 3 day) was 1209 x10E3/uL, the “ALANINE AMINOTRANSFERASE” value [1] was 35 u/L and the ALBUMIN [1] was 2.97 G/DL. For the same sequence, the “ALKALINE PHOSPHATASE” value [1] was 281 u/L, the “ASPARTATE AMINOTRANSFERASE” value [1] was 75.67 u/L and the “BLOOD UREA NITROGEN” value [1] was 18.67 mg/dL. For the same sequence, the “CARBON DIOXIDE” value [1] was 21.33 mmol/L, the CHOLESTEROL [1] was 62.33 mg/dL and the “CREATINE PHOSPHOKINASE” value [1] was 212.67 u/L. For the same sequence, the CREATININE [1] was 0.18 mg/dL, the “LACTATE DEHYDROGENASE” value [1] was 276.67 u/L and the LIPASE [1] was 6.67 u/L. The PHOSPHORUS [1] was 11.77 mg/dL, the POTASSIUM [1] was 6.36 MEQ/L and the SODIUM [1] was 149.8 MEQ/L. The “TOTAL BILIRUBIN” value [1] was 0.13 mg/dL, the “URIC ACID” value [1] was 2 mg/dL and the “ABSOLUTE BASOPHIL” value [2] was 0 CELLS/uL. The “ABSOLUTE EOSINOPHIL” value [2] was 278 CELLS/uL, the “ABSOLUTE LYMPHOCYTE” value [2] was 19000 CELLS/uL and the “ABSOLUTE MONOCYTE” value [2] was 554 CELLS/uL. The “ABSOLUTE SEGMENTED NEUTROPHIL” value [2] was 5634.67 CELLS/uL, the BASOPHIL [2] was 0% and the EOSINOPHIL [2] was 1%. The “ERYTHROCYTE COUNT” value [2] was 5.2 x10E6/uL, the HEMATOCRIT [2] was 32.27% and the HEMOGLOBIN [2] was 12.13 G/DL. The “LEUKOCYTE COUNT” value [2] was 25.47 x10E3/uL, the LYMPHOCYTE [2] was 76.67% and the “MEAN CORPUSCULAR HEMOGLOBIN” value [2] was 23.37 pg. For the same sequence, the “MEAN CORPUSCULAR HEMOGLOBIN CONCENTRATION” value [2] was 37.63 G/DL, the MONOCYTE [2] was 2% and the NEUTROPHIL [2] was 20.33%. The “NUCLEATED RED BLOOD CELLS” value [2] was 0 /100WBC, the “PLATELET COUNT” value [2] was 1747 x10E3/uL and the “ALANINE AMINOTRANSFERASE” value [3] was 31.33 u/L. For the same sequence, the ALBUMIN [3] was 2.63 G/DL, the “ALKALINE PHOSPHATASE” value [3] was 261.33 u/L and the “ASPARTATE AMINOTRANSFERASE” value [3] was 76 u/L. For the same sequence, the “BLOOD UREA NITROGEN” value [3] was 22.33 mg/dL, the “CARBON DIOXIDE” value [3] was 24.67 mmol/L and the CHLORIDE [3] was 107.33 MEQ/L. The CHOLESTEROL [3] was 48.67 mg/dL, the “CREATINE PHOSPHOKINASE” value [3] was 286 u/L and the CREATININE [3] was 0.17 mg/dL. For the same sequence, the GLUCOSE [3] was 135 mg/dL, the “LACTATE DEHYDROGENASE” value [3] was 423.33 u/L and the LIPASE [3] was 7 u/L. For the same sequence, the POTASSIUM [3] was 6.66 MEQ/L, the SODIUM [3] was 147.07 MEQ/L and the “TOTAL BILIRUBIN” value [3] was 0.1 mg/dL. The “TOTAL PROTEIN” value [3] was 5.43 G/DL and the “URIC ACID” value [3] was 1.73 mg/dL.
